Data set [1] can be described thus: Calcein dye leakage from liposome mimicking red blood cell membrane. Particulars: for dye leakage: PC/CH (1:1, w/w) liposome mimicking a red blood cell membrane in a mammal, FIG. 3. The procedure: (§1) To study an action mechanism for FP12-NH2, FP13-NH2, allD FP12-NH2, and allD FP13-NH2 peptides, the disruption ability of the peptides against liposomes mimicking a bacterial cell membrane and a red blood cell membrane was measured.
(§2) EYPG is an abbreviation for egg yolk L-α-phosphatidyl-DL-glycerol, and EYPC is an abbreviation for egg yolk 1,2-diacyl-sn-glycero-3-phosphocholine. CH is an abbreviation for cholesterol. After dissolving the phospholipids composed according to the content of each component in chloroform, the chloroform was removed using a rotary evaporator, and lyophilization was performed overnight. Afterward, the dried lipid film was dissolved in a Tris-buffer solution, and calcein […]. After repeated freezing and thawing, the calcein-encapsulated liposome was manufactured using an extruder. Subsequently, after an excitation wavelength of a spectrofluorimeter (Shimadzu RF 5301 PC spectrofluorimeter, Japan) was set to 490 nm, and an emission wavelength was set to 520 nm, the peptide was administered to the liposome to measure relative dye leakage, provided that a 100% dye leakage was expressed as fluorescence intensity when 0.01% Triton-Xioo was added.
The upper graphs of FIG. 3 show the % dye leakage for an EYPC/EYPG (7:3, w/w) liposome mimicking bacterial cells, encapsulating a fluorescent dye, calcein, by a peptide according to a peptide concentration. […] The lower graphs of FIG. […]

A further data set deals with S. aureus. Conditions: after treatment with proteolytic enzyme.
A short description of data set [2]: LPS binding affinity (Kd) by Isothermal Titration Calorimeter (ITC). The arrangement: species or system E. coli K1. Conditions: stated in words relative to FP1 (wild type, WT). An excerpt: FP1 (ADK 44-54) is denoted by wild type (WT), and peptides in which a point mutation occurred at various sites in WT were manufactured (FP3, FP5, FP6, and FP9). To increase the interaction with LPS in a residue sequence of FP3, peptides were designed based on FP3- and LPS-binding models (FP12-NH2 and FP13-NH2), and peptides were designed by additionally introducing a non-natural amino acid and an amino acid isomer (allomeric D-type amino acid) (allD FP12-NH2, allD FP13-NH2, allD FP-13-9a, allD FP-13-9w, allD FP-13-9k, and allD FP13-NH2 (AcOH)). In addition, an N-terminus PEGylated peptide (PEG-alld FP13-NH2 (AcOH)) was additionally designed, synthesized, and provided by ANYGEN, Co. Ltd. The binding affinity between each of the provided peptides and lipopolysaccharide (LPS) was confirmed through measuring the binding affinity (Kd) using Isothermal Titration Calorimeter (ITC).
Specifically, a method of analyzing binding affinity (Kd) between a peptide and LPS is as follows.
Measurement was carried out using a Malvern MicroCal PEAQ-ITC cell instrument, and the following pretreatment was carried out to confirm interaction with LPS. The amount and morphology of a sample cell are 300 µL and coin-shaped, fixed-in-place, respectively; a syringe rotation rate was 1,200 rpm; and a temperature was 30 °C, 35 °C or 25 °C.
Before the experiment, LPS and the peptide were previously diluted with PBS, thereby preparing 2 mM LPS and 0.2 mM peptide. 300 µL of the peptide was added into cells in the ITC instrument, which had been washed, and 40 µL of LPS was put into a syringe. After measurement conditions for ITC (temperature, number of injections) were set, the syringe was inserted into the cell, and ITC measurement was started. When the measurement was completed, analysis is performed, and the Kd values of LPS and the peptide were calculated.
In general terms: In ITC the heat of successive injections is recorded.

Data set [3] in a line: In vivo toxicity (survival rate for 72 hours). Conditions: ratio of a drug dose exhibiting toxicity to a drug dose for exhibiting a desired response. The arrangement: species or system ICR mice. The procedure: To confirm the therapeutic and pharmaceutical effects of an acetate salt substitution of allD FP13-NH2, a septic animal model induced by intraperitoneally administering each of the Escherichia coli (standard strain and ESBL) strains or a normal mouse was treated with the peptide allD FP13-NH2 (AcOH). The antibiotic effect, the toxicity, and the inhibitory activity of […] cytokine IL-6 of the salt substitution with those of the same peptide at the end of trifluoroacetic acid (TFA) were compared.
An experimental method is as follows: Six-week-old female ICR mice (SPF mice, Samtako) with an average body weight of 25 g were used as experimental animals. The experimental animals were provided with sterile feed and water and bred with less than 10 mice per cage, and a day/night cycle was 12 hours.
To evaluate in vivo toxicity, the mice were divided into groups (n=5 or 6 per group) per experiment, and intraperitoneally treated six times with allD FP13-NH2 (TFA) and allD FP13-NH2 (AcOH) mixed with […]'S DEX solution (vehicle) at 0, 1, 2, 3, 4, or 5 hours, followed by observing a survival rate at intervals of 12 hours for 72 hours.

In a further data set the test system is red blood cells. The data set is described as follows: Red blood cell hemolytic activity. Format: cell-based, human. Conditions: even at a low concentration; control peptide. The method, then:
The following experiment was carried out to determine the toxicity of a peptide through measurement of the red blood cell hemolytic activity in a human.
The red blood cells in a human were diluted with PBS for washing, and centrifuged for 10 minutes, the washing process was repeated three times. The 8.0% red blood cell solution diluted with PBS was loaded into a 96-well microtiter plate by 100 µL and 100 µL of a peptide solution was mixed, the mixture was incubated at 37 °C for 1 hour, and then the 96-well microtiter plate was centrifuged for 5 minutes. A 100 µL of supernatant was taken and transferred to another 96-well microtiter plate, and then absorbance was measured at 405 nm. Here, a value obtained when treated with 0.1% Triton X-100 was calculated as 100% hemolysis, and the hemolytic activity of the peptide was calculated as % hemolysis by Equation 1 below. Cell disruption rate(%Hemolysis) = (A−C)/(B−C) × 100 [formula]
Here, A is the absorbance at 405 nm in a peptide solution, B is the absorbance at 405 nm in a 0.1% Triton X-100, and C is the absorbance at 405 nm in a PBS solution.

A short description of data set [4]: Calcein dye leakage from liposome mimicking gram-negative bacterial cell membrane. Conditions: PC/PG (7:3, w/w) liposome; even at a low concentration. The method, then:
as §1
as §2, with “added. […]” for “added.”

No end group written: not given here.

As for `CC(C)C[C@@H](NC(=O)[C@H](N)CCCNC(=N)N)C(=O)N[C@H](CCCNC(=N)N)C(=O)N[C@@H](C(=O)N[C@H](CCCCN)C(=O)N[C@H](CC(C)C)C(=O)N[C@H](CCCNC(=N)N)C(=O)N[C@H](CCCNC(=N)N)C(=O)N[C@H](Cc1ccc(O)cc1)C(=O)N[C@H](CC(C)C)C(=O)N[C@H](CCCNC(=N)N)C(N)=O)C(C)C` [allD FP12-NH2], the dye leakage entry in data set [1] was “almost no dye leakage”. Moreover, the “stability (proteolytic enzyme resistance)” value with S. aureus is given as “very high stability”.

For `CC(C)C[C@H](NC(=O)[C@H](Cc1ccc(O)cc1)NC(=O)[C@H](CCCNC(=N)N)NC(=O)[C@H](CCCNC(=N)N)NC(=O)[C@H](CC(C)C)NC(=O)[C@H](CCCCN)NC(=O)[C@@H](NC(=O)[C@H](CCCNC(=N)N)NC(=O)[C@H](CC(C)C)NC(=O)[C@@H](N)CCCNC(=N)N)C(C)C)C(=O)N[C@@H](CCCNC(=N)N)C(N)=O` [FP12-NH2], the dye leakage entry in data set [1] is listed as “almost no dye leakage”.

Regarding KLRVKLRRALR [allD FP-13-9a], in data set [2], the LPS binding affinity entry is reported as “strong LPS binding affinity, which is equal to or higher than that of FP1”.

Consider KLRVKLRRWLR [allD FP-13-9w], for which, in data set [2], the LPS binding affinity result is reported as “strong LPS binding affinity, which is equal to or higher than that of FP1”.

In the case of `CC(C)C[C@H](NC(=O)[C@H](Cc1ccc(O)cc1)NC(=O)[C@H](CCCNC(=N)N)NC(=O)[C@H](CCCNC(=N)N)NC(=O)[C@H](CC(C)C)NC(=O)[C@H](CCCCN)NC(=O)[C@@H](NC(=O)[C@H](CCCNC(=N)N)NC(=O)[C@H](CC(C)C)NC(=O)[C@@H](N)CCCCN)C(C)C)C(=O)N[C@@H](CCCNC(=N)N)C(N)=O` [FP13-NH2], in data set [1], the dye leakage entry is “almost no dye leakage”.

As to `CC(C)C[C@@H](NC(=O)[C@H](N)CCCCN)C(=O)N[C@H](CCCNC(=N)N)C(=O)N[C@@H](C(=O)N[C@H](CCCCN)C(=O)N[C@H](CC(C)C)C(=O)N[C@H](CCCNC(=N)N)C(=O)N[C@H](CCCNC(=N)N)C(=O)N[C@H](Cc1ccc(O)cc1)C(=O)N[C@H](CC(C)C)C(=O)N[C@H](CCCNC(=N)N)C(N)=O)C(C)C` [allD FP13-NH2 (AcOH)], in data set [3], the “therapeutic index = LD50/ED50” value was “greater than 80”.

`CC(C)C[C@@H](NC(=O)[C@H](N)CCCCN)C(=O)N[C@H](CCCNC(=N)N)C(=O)N[C@@H](C(=O)N[C@H](CCCCN)C(=O)N[C@H](CC(C)C)C(=O)N[C@H](CCCNC(=N)N)C(=O)N[C@H](CCCNC(=N)N)C(=O)N[C@H](Cc1ccc(O)cc1)C(=O)N[C@H](CC(C)C)C(=O)N[C@H](CCCNC(=N)N)C(N)=O)C(C)C` [allD FP13-NH2]: in data set [1], the dye leakage result is reported as “almost no dye leakage”. The “stability (proteolytic enzyme resistance)” value in the data set on S. aureus is recorded as “very high stability”.

The molecule melittin had a hemolytic activity with red blood cells of 100%. For the same molecule, the calcein leakage entry in data set [4] is “responsible for calcein leakage”; in data set [1] (PC/CH (10:1, w/w) liposome mimicking a human red blood cell, 0.25 µM) it was around 100%.

As for KLRVKLRRKLR [allD FP-13-9k], the LPS binding affinity entry in data set [2] is listed as “strong LPS binding affinity, which is equal to or higher than that of FP1”.

Source of the values: patent EP3932936A1, “POLYPEPTIDE HAVING ANTIBACTERIAL ACTIVITY, COMPOSITION FOR PREVENTING OR TREATING SEPSIS COMPRISING SAME, AND ANTIBACTERIAL COMPOSITION” (Dandi Bioscience Inc, priority 2019, dated 2022).
